Test results published in patent US20060270019A1, “Method for producing lactic acid bacterium culture containing bacteriocin and a method for preserving food products for by using it” (Ajinomoto Co., Inc., priority 2003, published 2006).
Positions of bridges follow the written chain, without caps; N, C: chain ends. Non-standard residues stand in square brackets, D forms with d. No end group written: not given here.

Columns and labels:
Format in all cases: cell-based
[1] = tested on: Lactobacillus sakei strain JCM1157; experiment: Inhibitory zone of lactic acid bacteria on MRS agar plate containing protease (Umamizyme G), overlaid with indicator strain; details: Protease 0 U/ml, Nisin A spotted as 10 μl of 1000 IU/ml
Protocol: The collected lactic acid bacteria are cultivated in the heretofore described manner. Then, the lactic acid bacteria are inoculated and cultivated for 24 hours on a plate of MRS agar medium to which filtrated Umamizyme G (a protease derived from Aspergillus oryzaeproteases; Amano Enzyme Co) is added. Subsequently, the Lactobacilli AOAC medium (Table 3) into which an indicator strain is initially mixed is overlaid on the plate and cultivated for 24 hours, to form an inhibitory zone of the indicator strain.
Weissella sp. AJ110263 (FERM BP-10474) separated from fermented milk Matsoon and Pediococcus pentosaceus JCM5885, Pediococcus pentosaceus JCM5890, Lactobacillus plantarum JCM1149 and Lactobacillus salivarius obtained from the type cultures were initially cultivated followed by cultivation in the MRS medium (Table 1). […]
Lactococcus lactis NCDO497 (a nisinA producer) and Lactococcus lactis NCIMB702054 (a nisin Z producer) were cultivated in the MRS medium at 30° C. In the same manner as in Example 1, the antimicrobial activity was evaluated, using Lactobacillus sakei strain JCM1157 as an indicator strain.
Additionally, the antimicrobial activity was evaluated, by spotting 10 μl of a 1000 IU/ml solution of Nisin A, ICN Biomedical Inc. instead of using the nisin producer, on the plate of the MRS agar medium.

[2] = tested on: Bacillus subtilis IAM1381; experiment: Bacteriocin as substitute for salt in soy sauce manufacturing process: viable cell count of contaminating bacterium; details: soy sauce koji test, first day of fermentation up to day 7
Protocol: Soybean (10 g) and pure water (10 ml) were individually added into six Erlenmeyer flasks (200-ml volume) and sterilized in an autoclave at 120° C. for 30 minutes. After cooling, 0.04 g of koji mold(Purple 1, NO.1 bacterium for soy sauce) was added, and cultivated statically at 30° C. for 2 days. 40 ml of sterile pure water were added to cultivated sample (Sample No.1), 40 ml of salt solution which adjusted the salt content of the sample to 18% to Sample No.2, 40 ml of a culture supernatant of Lactococcus lactis NCIMB702054 (the bacterium producing nisin Z) to Sample No.3 and 40 ml of a culture supernatant of Weissella sp. AJ110263 (FERM BP-10474) to Sample No.4, 40 ml of a culture supernatant of Pediococcus pentosaseceus JCM5885 to Sample 5 and 40 ml of a culture supernatant of Lactobacillus salivarius JCM1231 to Sample 6. The resulting mixtures were then adjusted to pH 6.5 to 7.0, using 6N hydrochloric acid and 6N NaOH passed through a filter.
200 μl of Bacillus subtilis IAM1381 cultivated in the TSBYE medium by a shaker at 30° C. for 20 hours was additionally inoculated, mixed thoroughly and cultivated at 30° C. On days 1, 2 and 7 of the cultivation, the broth was collected to count the viable cells of Bacillus subtilis IAM1381 on the GAM agar medium (GAM bouillon “NISSUI”, Nissui Pharmaceutical Co., Ltd.). […]

[3] = tested on: Listeria innocua ATCC33090; experiment: Aging of ground beef inoculated with Listeria: viable cell count; details: first day of aging up to day 7
Text: The broths obtained by cultivating Lactococcus lactis NCIMB702054 (a strain producing NisinZ) and Weissella sp.AJ110263 (FERM BP-10474) in MRS culture media were adjusted to pH 5.5 with sodium hydroxide. Subsequently, the bacteria were removed from the pH adjusted culture liquid by centrifucation to obtain a supernatant. The broths containing lactic acid bacteria and the supernatants were used in the experiment described below.
5 g of ground meat of Black hair Japanese beef were individually put into six aseptic Falcon tubes (Becton Dickinson Co.50-ml volume) and 5 ml of saline were added to the meat(Sample No.1), 5 ml of 18% salt solution to Sample No.2, 5 ml of the supernatant of Lactococcus lactis NCIMB702054 to Sample No.3, 5 ml of the broth of Lactococcus lactis NCIMB702054 to Sample No.4, 5 ml of the supernatant of Weissella sp. AJ110263 to Sample No.5, 5 ml of the broth of Weissella sp. AJ110263 to Sample No.6. Further, Listeria innocua ATCC33090, statically cultivated in TSBYE medium at 37° C. for 24 hours, was added to the samples in the amount of 10^8 cfu/ml and the samples were aged at ambient temperature. The samples aged for one day and seven days were collected to count the viable cells of Listeria innocua ATCC33090 in the Listeria selection medium (Oxoid Inc.).

| Molecule | Diameter(mm) of Inhibitory Zone of Strain not producing PRB [1] [mm] | contamination by Bacillus subtilis IAM1381 (in words) [2] | contaminating Listeria innocua ATCC33090 count [3] |
| --- | --- | --- | --- |
| Nisin A (I[dehydrobutyrine]SI[dehydroalanine]LCTPGCKTGALMGCNMKTATCHCSIHV[dehydroalanine]K; bridge 23-26, 13-19, 8-11, 25-28, 3-7; not fully specified (residues 3, 8, 13, 23, 25, bridges); UniProt P13068 24-57, looked up) [Nisin A, ICN Biomedical Inc., bacteriocin spotted instead of a nisin producer] | 30 | – | – |
| [Cl-].[Na+] [salt, sodium chloride] | – | no contamination occurred | ≥ 10^5 cfu/ml |
